Test results reported in patent US9150505B2, “Prophylactic or therapeutic agent for diabetes or obesity” (AJINOMOTO CO., INC., priority 2010, dated 2015).
Counter-ions that a name gives are not always drawn.

molecular target: T1, human CaSR (Homo sapiens, UniProt P41180); experiment: Assessment of CaSR agonistic activity (Ca2+ fluorescence, FLIPR, hCaSR-transfected 293E cells); assay type: cell-based; conditions: human CaSR-expressing 293E cells, 1.5 mM CaCl2 assay buffer, 3-minute change in fluorescence intensity
T1 construct: expressed in transfected cells; host or cells: 293E cells (EBNA1-expressing HEK293, ATCC No. CRL-10852), transient transfection of hCaSR/pcDNA3.1
T1 sequence (P41180 20-1078): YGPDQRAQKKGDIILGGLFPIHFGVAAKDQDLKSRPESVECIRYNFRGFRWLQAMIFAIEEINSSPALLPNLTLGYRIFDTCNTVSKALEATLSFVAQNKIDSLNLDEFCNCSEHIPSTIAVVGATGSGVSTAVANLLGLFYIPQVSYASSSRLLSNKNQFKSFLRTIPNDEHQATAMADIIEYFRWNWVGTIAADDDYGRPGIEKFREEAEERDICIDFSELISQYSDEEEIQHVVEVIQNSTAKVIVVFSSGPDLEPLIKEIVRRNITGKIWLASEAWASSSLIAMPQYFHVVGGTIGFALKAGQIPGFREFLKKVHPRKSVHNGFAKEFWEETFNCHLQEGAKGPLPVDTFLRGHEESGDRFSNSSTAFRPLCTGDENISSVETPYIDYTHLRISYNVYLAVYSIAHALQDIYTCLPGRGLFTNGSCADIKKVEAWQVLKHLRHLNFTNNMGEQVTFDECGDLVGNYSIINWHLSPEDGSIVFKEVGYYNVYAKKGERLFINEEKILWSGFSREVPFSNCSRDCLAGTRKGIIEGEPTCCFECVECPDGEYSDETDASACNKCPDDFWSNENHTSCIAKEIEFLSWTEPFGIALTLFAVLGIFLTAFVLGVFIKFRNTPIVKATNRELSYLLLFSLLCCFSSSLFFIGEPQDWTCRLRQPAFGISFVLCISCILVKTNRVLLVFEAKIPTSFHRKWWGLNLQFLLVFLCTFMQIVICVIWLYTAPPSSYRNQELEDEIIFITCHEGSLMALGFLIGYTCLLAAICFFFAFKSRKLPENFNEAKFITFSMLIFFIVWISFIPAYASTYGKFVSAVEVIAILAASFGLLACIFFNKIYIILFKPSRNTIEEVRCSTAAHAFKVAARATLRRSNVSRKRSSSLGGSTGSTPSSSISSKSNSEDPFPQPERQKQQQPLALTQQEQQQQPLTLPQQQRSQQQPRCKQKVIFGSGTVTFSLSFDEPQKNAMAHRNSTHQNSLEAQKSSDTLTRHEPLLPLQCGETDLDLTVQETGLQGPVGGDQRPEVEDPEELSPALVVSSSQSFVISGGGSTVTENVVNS
Procedure: CaSR gene was prepared according to the method described in Example 1 of WO07/55393. The resulting recombinant plasmid was used to generate human CaSR-expressing plasmid hCaSR/pcDNA3.1.
293E cells (EBNA1-expressing IIEK293 cells, ATCC No. CRL-10852) were cultured in DMEM ([…] Glucose-containing Dulbecco's modified Eagle medium, Nacalai Tesque) containing 10% bovine fetal serum in the presence of 250 μg/ml of G418. The cells were seeded on a 10 cm-diameter petri dish at 1.8×10^6 cells/15 ml, and left to stand in a CO2 incubator (5% CO2, 37° C.) for 24 hours. Thereafter, human CaSR expression plasmid hCaSR/pcDNA3.1 was transfected with transfection reagent Mirus Trans IT 293 (Takara Bio). Following static culture in a CO2 incubator for 24 hours, the cells were harvested with 10% bovine fetal serum-containing DMEM and seeded on a poly-D-lysine coat 384 well plate (Falcon) at 15,000 cells/well. Following static culture in a CO2 incubator for 24 hours, the medium was removed and the resultant was added with 50 μl/well of Ca^2+ fluorescent indicator Calcium 4 Assay Kit (Molecular Devices) dissolved in an assay buffer (146 mM NaCl, 5 mM KCl, 1 mM MgSO4, 1 mg/ml Glucose, 20 mM HEPES (PH 7.2), 1.5 mM CaCl2), and left to stand at 37° C. for an hour and then at room temperature for 30 minutes to allow intake of the indicator. The above-mentioned 384-well plate was transferred to FLIPR (Molecular Devices) and added with 12.5 μl/well of a compound dissolved in a 0.1% BSA-containing assay buffer to measure 3-minute change in the fluorescence intensity.
The difference between maximum and minimum fluorescence intensities before and after compound addition (RFU (Max−Min)) was determined by FLIPR automatic calculation. An activity rate was calculated where RFU (Max−Min) upon addition of a compound at a maximum concentration was defined 100% and RFU (Max−Min) upon addition of DMSO as a substitute for the compound at the same concentration was defined 0%. The rate was subjected to curve fitting using spreadsheet software Xfit to determine EC50 value, i.e., a compound concentration upon 50% activity rate.

SMILES | EC50 [µM]
CN[C@@H](CNC(=O)Nc1cc(Cl)c(C)c(S(=O)(=O)O)c1)C(=O)O [Example 79, (2S)-3-{[(3-chloro-4-methyl-5-sulfophenyl)carbamoyl]amino}-2-(methylamino)propanoic acid] | 0.313
N[C@@H](CSC(=O)Nc1cccc(S(=O)(=O)O)c1)C(=O)O [Example 4, (2R)-2-amino-3-{[(3-sulfophenyl)carbamoyl]sulfanyl}propanoic acid] | 0.04
N[C@@H](CCC(=O)Nc1cc(Cl)cc(S(=O)(=O)O)c1O)C(=O)NO [Example 41, 3-[(4S)-4-amino-4-(hydroxycarbamoyl)butanamide]-5-chloro-2-hydroxybenzene-1-sulfonic acid] | 0.039
Cc1c(Cl)cc(S(=O)(=O)O)cc1NC(=S)NC[C@H](N)C(=O)O [Example 47, (2S)-2-amino-3-{[(3-chloro-2-methyl-5-sulfophenyl)carbamothioyl]amino}propanoic acid] | 0.004
N[C@@H](CNC(=O)Nc1cc(C(=O)O)cc([N+](=O)[O-])c1)C(=O)O [Example 92, 3-({[(2S)-2-amino-2-carboxyethyl]carbamoyl}amino)-5-nitrobenzoic acid] | 1.8
N[C@@H](CCC(=O)Nc1cc(Cl)cc(S(=O)(=O)O)c1O)C(=O)NNC(=O)Cc1ccccc1 [Example 17, 3-[(4S)-4-amino-5-oxo-5-(2-phenylacetohydrazide)pentanamide]-5-chloro-2-hydroxybenzene-1-sulfonic acid] | 0.25
COC(=O)[C@@H](N)CNC(=O)Nc1cc(Cl)cc(S(=O)(=O)O)c1O [Example 67, 3-({[(2S)-2-amino-3-methoxy-3-oxopropyl]carbamoyl}amino)-5-chloro-2-hydroxybenzene-1-sulfonic acid] | 0.003
N[C@@H](CCC(=O)Nc1cccc(S(=O)(=O)O)n1)C(=O)O [Example 42, (2S)-2-amino-4-[(6-sulfopyridine-2-yl)carbamoyl]butanoic acid trifluoroacetic acid salt] | 13
Cc1nnc([C@@H](N)CCC(=O)Nc2cc(Cl)cc(S(=O)(=O)O)c2O)o1 [Example 15, 3-[(4S)-4-amino-4-(5-methyl-1,3,4-oxadiazol-2-yl)butanamide]-5-chloro-2-hydroxybenzene-1-sulfonic acid] | 0.18
N[C@@H](CCC(=O)Nc1cc(Cl)cc(S(=O)(=O)O)c1O)C(=O)NS(=O)(=O)c1ccccc1 [Example 62, 3-[(4S)-4-amino-4-[(benzenesulfonyl)carbamoyl]butanamide]-5-chloro-2-hydroxybenzene-1-sulfonic acid] | 2.3
Cc1ccc(NC(=O)NC[C@H](N)C(=O)O)cc1C(=O)O [Example 99, 5-({[(2S)-2-amino-2-carboxyethyl]carbamoyl}amino)-2-methylbenzoic acid] | 15
N#CCC[C@H](N)COC(=O)Nc1cc(Cl)cc(S(=O)(=O)O)c1O [Example 12, 3-({[(2S)-2-amino-4-cyanobutoxy]carbonyl}amino)-5-chloro-2-hydroxybenzene-1-sulfonic acid] | 1.1
COc1cc(NC(=O)NC[C@H](N)C(=O)O)cc(C(=O)O)c1 [Example 101, 3-({[(2S)-2-amino-2-carboxyethyl]carbamoyl}amino)-5-methoxybenzoic acid] | 3.6
CS(=O)(=O)NC(=O)[C@@H](N)CCC(=O)Nc1cc(Cl)cc(S(=O)(=O)O)c1O [Example 34, 3-[(4S)-4-amino-4-(methanesulfonylcarbamoyl)butanamide]-5-chloro-2-hydroxybenzene-1-sulfonic acid] | 0.39

Continued, values first:

EC50 [µM] | SMILES
21.1 | CC(=O)Nc1cc(S(=O)(=O)O)cc(NC(=O)NC[C@H](N)C(=O)O)c1O [Example 83, (2S)-2-amino-3-{[(3-acetamide-2-hydroxy-5-sulfophenyl)carbamoyl]amino}propanoic acid]
1.2 | N[C@@H](CCC(=O)Nc1cc(Cl)cc(S(=O)(=O)O)c1O)C(=O)NCCc1cccc(Cl)c1 [Example 32, 3-[(4S)-4-amino-4-{[2-(3-chlorophenyl)ethyl]carbamoyl}butanamide]-5-chloro-2-hydroxybenzene-1-sulfonic acid]
3.7 | COc1ccc(NC(=O)NC[C@H](N)C(=O)O)cc1S(=O)(=O)O [Example 81, (2S)-2-amino-3-{[(4-methoxy-3-sulfophenyl)carbamoyl]amino}propanoic acid]
1.6 | N[C@@H](CNC(=O)Nc1cccc(C(=O)O)c1)C(=O)O [Example 85, 3-({[(2S)-2-amino-2-carboxyethyl]carbamoyl}amino)benzoic acid]
1 | N[C@@H](CNC(=O)Nc1cccc(C(=O)O)c1O)C(=O)O [Example 90, 3-({[(2S)-2-amino-2-carboxyethyl]carbamoyl}amino)-2-hydroxybenzoic acid]
1.1 | Cc1cc(C)c(S(=O)(=O)O)cc1NC(=O)NC[C@H](N)C(=O)O [Example 89, (2S)-2-amino-3-{[(2,4-dimethyl-5-sulfophenyl)carbamoyl]amino}propano is acid]
0.018 | N[C@@H](CNC(=O)Nc1cccc(S(=O)(=O)O)c1)C(=O)O [Example 77, (2S)-2-amino-3-{[(3-sulfophenyl)carbamoyl]amino}propanoic acid]
2.3 | N[C@@H](CNC(=O)Nc1cc(C(=O)O)ccc1Cl)C(=O)O [Example 88, 3-({[(2S)-2-amino-2-carboxyethyl]carbamoyl}amino)-4-chlorobenzoic acid]
1 | COc1ccc(S(=O)(=O)O)cc1NC(=O)NC[C@H](N)C(=O)O [Example 82, (2S)-2-amino-3-{[(2-methoxy-5-sulfophenyl)carbamoyl]amino}propanoic acid]
1.8 | CN(C)[C@@H](CCC(=O)Nc1cc(Cl)cc(S(=O)(=O)O)c1O)C(=O)O [Example 76, (2S)-4-[(5-chloro-2-hydroxy-3-sulfophenyl)carbamoyl]-2-(dimethylamino)butanoic acid]
5 | Cc1ccc(C(=O)O)cc1NC(=O)NC[C@H](N)C(=O)O [Example 93, 3-({[(2S)-2-amino-2-carboxyethyl]carbamoyl}amino)-4-methylbenzoic acid]
0.88 | N[C@@H](CCC(=O)Nc1cc(Cl)cc(S(=O)(=O)O)c1O)c1nnc(Cc2ccccc2)o1 [Example 16, 3-[(4S)-4-amino-4-(5-benzyl-1,3,4-oxadiazol-2-yl)butanamide]-5-chloro-2-hydroxybenzene-1-sulfonic acid]
0.49 | N[C@@H](CNC(=O)Nc1cc(S(=O)(=O)O)ccc1F)C(=O)O [Example 104, (2S)-2-amino-3-{[(2-fluoro-5-sulfophenyl)carbamoyl]amino}propanoic acid]
5.8 | COc1c(NC(=O)NC[C@H](N)C(=O)O)cccc1C(=O)O [Example 100, 3-({[(2S)-2-amino-2-carboxyethyl]carbamoyl}amino)-2-methoxybenzoic acid]
7 | C[C@H](OC(=O)Nc1cccc(S(=O)(=O)O)c1)[C@H](N)C(=O)O [Example 43, (2S,3S)-2-amino-3-{[(3-sulfophenyl)carbamoyl]oxy}butanoic acid]
